The values that follow come from patent publication US6350767B1, “Compounds with growth hormone releasing properties” (Novo Nordisk A/S, priority 1995, dated 2002).

Where a name gives a salt, the structure may show the parent alone.

A word on the melting point: it is the temperature of the solid-liquid transition.

The subject of data set [1] is trypsin, chymotrypsin and elastase. Nature of the data set: Metabolic stability in pancreatic enzyme mix (ESMS, SIM of the molecular ion). Type of data set: in vitro ADME. To be noted: stability after 24 h at 37° C. in trypsin, 100 mM ammoniumbicarbonate pH 8.0, enzyme:substrate approx. 1:5 (w/w). How it is done: (§1) Compounds of formula I may be evaluated for their metabolic stability.
(§2) Compounds were dissolved at a concentration of 1 μg/μl in water. 25 μl of this solution is added to 175 μl of the respective enzyme-solution (resulting in an enzyme:substrate ratio (w/w) of approximately 1:5). The solution is left at 37° C. overnight. 10 μl of the various degradation solutions is analyzed against a corresponding zero-sample using flow injection electrospray mass spectrometry (ESMS) with selected ion monitoring of the molecular ion. If the signal has decreased more than 20% compared to the zero-sample, the remainder of the solution is analyzed by HPLC and mass spectrometry in order to identify the extent and site(s) of degradation precisely.
(§3) Several standard peptides (ACTH 4-10, Angiotensin 1-14 and Glucagon) have been included in the stability tests in order to verify the ability of the various solutions to degrade peptides.
(§4) Enzymes (trypsin, chymotrypsin, elastase aminopeptidase M and carboxypeptidase Y and B) were all purchased from Boehringer Mannheim GmbH (Mannheim, Germany)
Pancreatic enzyme mix: trypsin, chymotrypsin and elastase in 100 mM ammoniumbicarbonate pH 8.0 (all concentrations 0.025 μg/μl).
(§5) Quantification of the compounds (before and after degradation) was done on the API III instrument using single ion monitoring of the molecular ion in question with flow injection of the analyte. […]

The test system of a further data set is carboxypeptidase Y and B. In words: Metabolic stability in carboxypeptidase mix (ESMS, SIM of the molecular ion). Type of data set: in vitro ADME. The following applies: stability after 24 h at 37° C. in carboxypeptidase Y and B, 50 mM ammoniumacetate pH 4.5; enzyme:substrate approx. 1:5 (w/w). As for the experimental part:
as §1, §2, §3, §4
Carboxypeptidase mix: carboxypeptidase Y and B in 50 mM ammoniumacetate pH 4.5 (all concentrations 0.025 μg/μl).
as §5

`Cc1noc([C@@H](Cc2ccccc2)NC(=O)[C@@H](Cc2ccc3ccccc3c2)NC(=O)c2cccc(CN)c2)n1` (as salt: salt) returned a melting point of 240 to 241 °C.

As for `Cc1noc([C@@H](Cc2ccccc2)NC(=O)[C@@H](Cc2ccc3ccccc3c2)NC(=O)[C@@H]2CCCNC2)n1` (stereo in doubt) (as salt: salt), the melting point is 198 to 200 °C.

In turn, `Cc1noc([C@@H](Cc2ccccc2)NC(=O)C(Cc2ccc3ccccc3c2)NC(=O)/C=C/C(C)(C)N)n1` (stereo in doubt) (as salt: salt) showed a melting point of 161 to 167 °C.

Take `Cc1noc([C@@H](Cc2ccccc2)NC(=O)[C@@H](Cc2ccc3ccccc3c2)NC(=O)C2CCNCC2)n1` (stereo in doubt) (as salt: salt): the melting point was in the range of 238 to 241 °C.

On to Glucagon, for which, in data set [1], the Pan. enzyme mix entry is given as “− (Unstable (more than 20% decrease in SIM signal after 24 h in degradation solution))”. The Carboxy-peptidase mix entry in the data set on carboxypeptidase Y and B is on record as “− (Unstable (more than 20% decrease in SIM signal after 24 h in degradation solution))”.
